Where a name gives a salt, the structure may show the parent alone. Read-outs that look alike come from different tables or passages of the source.
System: Peripheral blood mononuclear cells (PBMC)
Test: Cytokine Induction in Human Cells (in vitro human blood cell system, IFN and TNF secreted into culture media)
Assay type: cell-based
Design: key to Lowest Effective Concentration (μM) Tumor Necrosis Factor / Lowest Effective Concentration (μM) Interferon: *: no induction was seen at any of the tested concentrations
Conditions: 18 to 24 hours, tested 30-0.014 μM
Excerpt: An in vitro human blood cell system is used to assess cytokine induction. Activity is based on the measurement of interferon and tumor necrosis factor (α) (IFN and TNF, respectively) secreted into culture media as described by Testerman et. al. In “Cytokine Induction by the Immunomodulators Imiquimod and S-27609”, Journal of Leukocyte Biology, 58, 365-372 (September, 1995).
Whole blood from healthy human donors is collected by venipuncture into EDTA vacutainer tubes. Peripheral blood mononuclear cells (PBMC) are separated from whole blood by density gradient centrifugation using Histopaque®-1077. Blood is diluted 1:1 with Dulbecco's Phosphate Buffered Saline (DPBS) or Hank's Balanced Salts Solution (HBSS). The PBMC layer is collected and washed twice with DPBS or HBSS and resuspended at 4×10^6 cells/mL in RPMI complete. The PBMC suspension is added to 48 well flat bottom sterile tissue culture plates (Costar, Cambridge, Mass. or Becton Dickinson Labware, Lincoln Park, N.J.) containing an equal volume of RPMI complete media containing test compound.
The compounds are solubilized in dimethyl sulfoxide (DMSO). The DMSO concentration should not exceed a final concentration of 1% for addition to the culture wells. The compounds are generally tested at concentrations ranging from 30-0.014 μM.
The solution of test compound is added at 60 μM to the first well containing RPMI complete and serial 3 fold dilutions are made in the wells. The PBMC suspension is then added to the wells in an equal volume, bringing the test compound concentrations to the desired range (30-0.014 μM). The final concentration of PBMC suspension is 2×10^6 cells/mL. The plates are covered with sterile plastic lids, mixed gently and then incubated for 18 to 24 hours at 37° C. in a 5% carbon dioxide atmosphere.
Following incubation the plates are centrifuged for 10 minutes at 1000 rpm (˜200×g) at 4° C. The cell-free culture supernatant is removed with a sterile polypropylene pipet and transferred to sterile polypropylene tubes. Samples are maintained at −30 to −70° C. until analysis. The samples are analyzed for interferon (α) by ELISA and for tumor necrosis factor (α) by ELISA or IGEN Assay.
Interferon (α) concentration is determined by ELISA using a Human Multi-Species kit from PBL Biomedical Laboratories, New Brunswick, N.J. Results are expressed in pg/mL.
Tumor necrosis factor (α) (TNF) concentration is determined using ELISA kits available from Biosource International, Camarillo, Calif. Alternately, the TNF concentration can be determined by Origen® M-Series Immunoassay and read on an IGEN M-8 analyzer from IGEN International, Gaithersburg, Md. The immunoassay uses a human TNF capture and detection antibody pair from Biosource International, Camarillo, Calif. Results are expressed in pg/mL.
The table below lists the lowest concentration found to induce interferon and the lowest concentration found to induce tumor necrosis factor for each compound.

[1] = Homo sapiens, PBMC, lowest concentration found to induce interferon (α), ELISA, read-out: Lowest Effective Concentration (μM) Interferon
[2] = Homo sapiens, PBMC, lowest concentration found to induce tumor necrosis factor (α), ELISA or IGEN assay, read-out: Lowest Effective Concentration (μM) Tumor Necrosis Factor
[3] = lowest concentration found to induce tumor necrosis factor (α), ELISA or IGEN assay
[4] = lowest concentration found to induce interferon (α), ELISA
[5] = lowest concentration found to induce interferon (α), ELISA, read-out: Lowest Effective Concentration (μM) Interferon

Compound	minimal effective concentration [1] [µM]	Lowest Effective Concentration (μM) Tumor Necrosis Factor [3]	also measured
CC(C)c1ccccc1C#CCOCCn1cnc2c(N)nc3ccccc3c21 [Example 7, 1-(2-{[3-(2-Isopropylphenyl)-2-propynyl]oxy}ethyl)-1H-imidazo[4,5-c]quinolin-4-amine Hydrochloride]	1.11		minimal effective concentration [2]: 0.37 µM
Nc1nc2ccccc2c2c1ncn2CCOCCCc1ccc(-n2cccc2)cc1 [Example 11, 1-(2-{3-[4-(1H-1-Pyrrolyl)phenyl]propoxy}ethyl)-1H-imidazo[4,5-c]quinolin-4-amine trifluoroacetate]	1.11	*	
Nc1nc2ccccc2c2c1ncn2CCOCCCc1cccc(C(=O)O)c1 [Example 12, 3-{3-[2-(4-Amino-1H-imidazo[4,5-c]quinolin-1-yl)ethoxy]propyl}benzoic acid bis(trifluoroacetate)]	10	*	
Nc1nc2ccccc2c2c1ncn2CCOCCCc1ccccc1C(=O)O [Example 13, 2-{3-[2-(4-Amino-1H-imidazo[4,5-c]quinolin-1-yl)ethoxy]propyl}benzoic acid trifluoroacetate]	10		minimal effective concentration [2]: 10 µM
Nc1nc2ccccc2c2c1ncn2CCOCCCc1ccc(C(=O)O)cc1 [Example 14, 4-{3-[2-(4-Amino-1H-imidazo[4,5-c]quinolin-1-yl)ethoxy]propyl}benzoic acid trifluoroacetate]	10		minimal effective concentration [2]: 10 µM
CN(C)c1cccc(CCCOCCn2cnc3c(N)nc4ccccc4c32)c1 [Example 15, 1-(2-{3-[3-(Dimethylamino)phenyl]propoxy}ethyl)-1H-imidazo[4,5-c]quinolin-4-amine dihydrochloride]	0.12	*	
CCOCc1nc2c(N)nc3ccccc3c2n1CCOCCCc1ccccc1 [Example 16, 2-(Ethoxymethyl)-1-[2-(3-phenylpropoxy)ethyl]-1H-imidazo[4,5-c]quinolin-4-amine Hydrochloride]	0.01		minimal effective concentration [2]: 0.37 µM
Nc1ccccc1CCCOCCn1cnc2c(N)nc3ccccc3c21 [Example 18, 1-{2-[3-(2-Aminophenyl)propoxy]ethyl}-1H-imidazo[4,5-c]quinolin-4-amine trifluoroacetate]	0.12		minimal effective concentration [2]: 1.11 µM
CCOCc1nc2c(N)nc3ccccc3c2n1CCOCCCCCCOCCCCc1ccccc1 [Example 20, 2-(Ethoxymethyl)-1-(2-{[6-(4-phenylbutoxy)hexyl]oxy}ethyl)-1H-imidazo[4,5-c]quinoline-4-amine]		*	Lowest Effective Concentration (μM) Interferon [4]: *
CCOCc1nc2c(N)nc3ccccc3c2n1CCOCCCOCc1ccccc1 [Example 21, 1-{2-[3-(Benzyloxy)propoxy]ethyl}-2-(ethoxymethyl)-1H-imidazo[4,5-c]quinolin-4-amine]	0.12	*	
Nc1nc2ccccc2c2c1ncn2CCOCCCc1ccccc1 [Example 22, 1-[2-(3-Phenylpropoxy)ethyl]-1H-imidazo[4,5-c]quinolin-4-amine]	0.12		minimal effective concentration [2]: 0.37 µM
CCC(COCc1ccccc1)n1cnc2c(N)nc3ccccc3c21 (stereo not drawn) [Example 24]	0.12	*	
CCC(COCc1cccc(C)c1)n1cnc2c(N)nc3ccccc3c21 (stereo not drawn) [Example 25]	0.12	*	
CCC(COCc1cccc(C(F)(F)F)c1)n1cnc2c(N)nc3ccccc3c21 (stereo not drawn) [Example 26]	0.12	*	
CCC(COCc1ccc(Br)cc1)n1cnc2c(N)nc3ccccc3c21 (stereo not drawn) [Example 27]	0.12	*	
Nc1nc2ccccc2c2c1ncn2CC(OCc1ccccc1)c1ccccc1 (stereo not drawn) [Example 28]	10	*	
Nc1nc2ccccc2c2c1ncn2CC(OCc1ccc(Cl)cc1)c1ccccc1 (stereo not drawn) [Example 29]		*	Lowest Effective Concentration (μM) Interferon [4]: *
Nc1nc2ccccc2c2c1ncn2CC(OCc1cccc(Cl)c1)c1ccccc1 (stereo not drawn) [Example 30]	3.33	*	

Compound	minimal effective concentration [1] [µM]	Lowest Effective Concentration (μM) Tumor Necrosis Factor [3]	also measured
Cc1ccc(COC(Cn2cnc3c(N)nc4ccccc4c32)c2ccccc2)cc1 (stereo not drawn) [Example 31]		*	Lowest Effective Concentration (μM) Interferon [4]: *
Cc1cccc(COC(Cn2cnc3c(N)nc4ccccc4c32)c2ccccc2)c1 (stereo not drawn) [Example 32]	10	*	
CC(C)(Cn1cnc2c(N)nc3ccccc3c21)OCc1ccccc1 [Example 33]		*	Lowest Effective Concentration (μM) Interferon [4]: *
CC(C)(Cn1cnc2c(N)nc3ccccc3c21)OCc1ccc(Cl)cc1 [Example 34]		*	Lowest Effective Concentration (μM) Interferon [4]: *
CC(C)(Cn1cnc2c(N)nc3ccccc3c21)OCc1cccc(Cl)c1 [Example 35]		*	Lowest Effective Concentration (μM) Interferon [4]: *
Cc1ccc(COC(C)(C)Cn2cnc3c(N)nc4ccccc4c32)cc1 [Example 36]		*	Lowest Effective Concentration (μM) Interferon [4]: *
Cc1cccc(COC(C)(C)Cn2cnc3c(N)nc4ccccc4c32)c1 [Example 37]		*	Lowest Effective Concentration (μM) Interferon [4]: *
CC(C)(Cn1cnc2c(N)nc3ccccc3c21)OCc1ccccc1Cl [Example 38]	10	*	
CC(C)(Cn1cnc2c(N)nc3ccccc3c21)OCc1ccccc1C#N [Example 39]	1.11	*	
CCC(COCc1ccccc1Cl)n1cnc2c(N)nc3ccccc3c21 (stereo not drawn) [Example 40]	0.12	*	
COC(=O)c1ccc(COCCn2cnc3c(N)nc4ccccc4c32)cc1 [Example 41]	1.11		minimal effective concentration [2]: 3.33 µM
Nc1nc2ccccc2c2c1ncn2CCOCc1ccccc1 [Example 42]	0.37	*	
CCC(COCC(=O)OC)n1cnc2c(N)nc3ccccc3c21 (stereo not drawn) [Example 43]	0.37	*	
CCC(COCc1cccc(OC(F)(F)F)c1)n1cnc2c(N)nc3ccccc3c21 (stereo not drawn) [Example 45]	0.37	*	
CCC(COCc1ccc(C#N)cc1)n1cnc2c(N)nc3ccccc3c21 (stereo not drawn) [Example 46]			minimal effective concentration [5]: 0.01 µM; minimal effective concentration (lowest concentration found to induce tumor necrosis factor (α), ELISA or IGEN assay, read-out: Lowest Effective Concentration (μM) Tumor Necrosis Factor): 3.33 µM
CCC(COCc1cccc(Cl)c1)n1cnc2c(N)nc3ccccc3c21 (stereo not drawn) [Example 47]		*	minimal effective concentration [5]: 0.12 µM
CCC(COCc1ccc(OC(F)(F)F)cc1)n1cnc2c(N)nc3ccccc3c21 (stereo not drawn) [Example 48]	0.12	*	
CCC(COCc1ccc(C)cc1)n1cnc2c(N)nc3ccccc3c21 (stereo not drawn) [Example 49]	0.04	*	

Reference: US6989389B2, “Aryl ether substituted imidazoquinolines” (3M Innovative Properties Co., priority 2000, dated 2006)
